Patent US20080047904A1, “Treatment for Hydrostatic Testing Water” (priority 2004, published 2008)

Experiments:
[1] = test system: Medinia beryllina larvae; experiment: 48-hour acute LC50 assay, static renewal; type: in vivo
Experimental: (§1) The test concentrations were prepared daily, and used immediately for test initiation and renewal. The total residual chlorine was measured in the highest concentration tested for each sample. The measured chlorine concentrations were used to calculate the estimated chlorine concentrations at the lower sample dilutions in these tests. Both range finder and definitive assays were conducted.
(§2) A second set of experiments were conducted to mimic aged treated seawater. This attempted to model water that had been held in a pipeline for 24 hours, and then discharged. The experiments were identical to those described in the preceding paragraph, except that the highest test concentrations were prepared 24 hours before exposure to the test organisms. These same solutions were then used to prepare the 24 hour static renewal concentrations. The residual chlorine concentrations were measured when the test organisms were initially exposed to the toxic insult. These measurement were used to calculate the estimated chlorine concentrations at the lower sample dilutions in these tests, and after the static renewal at 24 hours.

[2] = test system: Mysidopsis bahia juveniles; experiment: 48-hour acute LC50 assay, static renewal; type: in vivo
Experimental: as §1, §2

[3] = Reversion of phosphonate to orthophosphate by oxidizing biocides; type: physicochemical; conditions: 10 ppm oxidant (as Cl2) dosed, pH 9.1, 23° C.
Experimental: The biocides studied consisted of WELLGUARD® 7030, bleach (NaOCl), and activated sodium bromide (NaOCl and NaBr). The WELLGUARD® 7030 and bleach were added directly. Activated sodium bromide was prepared in situ by introducing 20 ppm bromide ion to the stock solution followed by addition of bleach. The phosphonates used in this work consisted of AMP (aminomethylene phosphonic acid), HEDP (hydroxyethylidene diphosphonic acid), and PBTC (phosphonobutanetricarboxylic acid). These materials were commercial samples (Mayoquest 1320, 1500, and 2100, respectively) obtained from Callaway Chemical Co. (Smyrna, Ga.).
Solutions consisting of 5 ppm scale inhibitor (as active phosphonate) in the presence of 10 ppm oxidant (as Cl2) were prepared as follows. To 900 mL deionized water were added appropriate stock solutions containing phosphonate, alkalinity (NaHCO3), and calcium hardness (CaCl2). The pH was adjusted to 9.1 with 5% aq. NaOH and diluted up to 1 L in a dark amber bottle. A dose of oxidant was added to achieve a residual of 10 ppm. The solutions were then periodically monitored for phosphonate reversion by determining the reversion to orthophosphate (Hach method 490). The oxidant residual was also periodically monitored using the DPD method (Hach method 80). All of this work was performed at room temperature (23° C.). […]

[4] = aged: highest test concentrations prepared 24 hours before exposure
[5] = fresh test solutions, static renewal at 24 hours

Structure (SMILES): [Na+].[O-]Cl [Bleach, NaOCl]
- 48-hour acute LC50 [1, 4]: 0.50 ppm as Cl2
- 48-hour acute LC50 [1, 5]: 0.57 ppm as Cl2
- 48-hour acute LC50 [2, 4]: 0.42 ppm as Cl2
- 48-hour acute LC50 [2, 5]: 0.34 ppm as Cl2
- Cl2 (oxidant residual) ([3]; 5 ppm AMP, 460 minutes): 9.4 ppm
- Cl2 (oxidant residual) ([3]; 5 ppm HEDP, 400 minutes): 10.6 ppm
